Tests used:
Experiment in all cases: MicroScale Thermophoresis
Menin = target: T1, Menin (Homo sapiens, UniProt O00255); assay type: binding
T1 sequence (O00255 1-610): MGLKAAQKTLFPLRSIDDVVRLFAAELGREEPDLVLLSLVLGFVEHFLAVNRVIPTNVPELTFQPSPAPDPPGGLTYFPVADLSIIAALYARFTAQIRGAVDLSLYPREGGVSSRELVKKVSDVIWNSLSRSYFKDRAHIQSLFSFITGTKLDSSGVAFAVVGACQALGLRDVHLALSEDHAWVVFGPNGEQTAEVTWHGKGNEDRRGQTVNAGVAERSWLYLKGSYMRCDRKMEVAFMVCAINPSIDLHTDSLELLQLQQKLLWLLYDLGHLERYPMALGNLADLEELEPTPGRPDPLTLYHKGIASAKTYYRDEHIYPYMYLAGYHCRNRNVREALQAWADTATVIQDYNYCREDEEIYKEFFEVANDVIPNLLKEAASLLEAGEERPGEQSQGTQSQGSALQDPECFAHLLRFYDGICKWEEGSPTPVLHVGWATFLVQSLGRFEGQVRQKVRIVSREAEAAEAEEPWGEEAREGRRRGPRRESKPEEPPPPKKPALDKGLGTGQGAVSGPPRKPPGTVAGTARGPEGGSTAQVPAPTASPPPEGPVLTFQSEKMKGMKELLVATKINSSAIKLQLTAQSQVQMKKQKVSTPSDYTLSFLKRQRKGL

[1] = target: Glutamate receptor 2 (GRIA2) (Homo sapiens, UniProt P42262); assay type: binding
Chain of Glutamate receptor 2 (GRIA2) (P42262 25-543 limits assumed): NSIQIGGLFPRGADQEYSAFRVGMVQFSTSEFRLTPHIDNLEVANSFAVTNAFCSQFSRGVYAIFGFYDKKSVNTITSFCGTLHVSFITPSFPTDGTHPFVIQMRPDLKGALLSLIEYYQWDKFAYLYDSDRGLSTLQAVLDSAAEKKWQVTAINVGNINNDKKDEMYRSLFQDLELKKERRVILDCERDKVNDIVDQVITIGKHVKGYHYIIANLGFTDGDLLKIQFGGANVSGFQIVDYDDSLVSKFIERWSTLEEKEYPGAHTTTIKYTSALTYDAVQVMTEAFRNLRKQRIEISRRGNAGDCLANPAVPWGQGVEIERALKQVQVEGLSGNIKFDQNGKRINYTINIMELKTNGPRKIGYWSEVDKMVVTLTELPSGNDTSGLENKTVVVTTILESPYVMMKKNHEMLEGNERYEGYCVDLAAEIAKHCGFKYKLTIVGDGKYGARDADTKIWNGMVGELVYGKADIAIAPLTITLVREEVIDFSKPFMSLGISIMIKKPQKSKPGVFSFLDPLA

[2] = target: Nicotinamide/nicotinic acid mononucleotide adenylyltransferase 1 (NMNAT1) (Homo sapiens, UniProt Q9HAN9); assay type: binding
Chain of Nicotinamide/nicotinic acid mononucleotide adenylyltransferase 1 (NMNAT1) (Q9HAN9 whole entry): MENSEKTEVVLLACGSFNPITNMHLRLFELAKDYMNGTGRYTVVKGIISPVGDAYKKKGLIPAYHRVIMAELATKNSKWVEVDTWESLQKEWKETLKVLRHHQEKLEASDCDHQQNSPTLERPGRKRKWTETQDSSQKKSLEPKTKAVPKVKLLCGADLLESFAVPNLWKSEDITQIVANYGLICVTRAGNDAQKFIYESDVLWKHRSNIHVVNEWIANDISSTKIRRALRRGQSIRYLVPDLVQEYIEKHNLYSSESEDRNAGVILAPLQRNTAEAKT

[3] = target: Hematopoietic prostaglandin D synthase (HPGDS) (Homo sapiens, UniProt O60760); assay type: binding
Chain of Hematopoietic prostaglandin D synthase (HPGDS) (O60760 whole entry): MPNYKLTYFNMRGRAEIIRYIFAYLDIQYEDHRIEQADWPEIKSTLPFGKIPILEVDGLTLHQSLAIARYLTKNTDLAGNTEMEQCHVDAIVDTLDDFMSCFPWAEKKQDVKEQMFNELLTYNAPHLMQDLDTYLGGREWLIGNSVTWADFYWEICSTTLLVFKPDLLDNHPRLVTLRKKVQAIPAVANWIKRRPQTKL

[4] = target: T2, Fatty acid-binding protein 4 (FABP4) (Homo sapiens, UniProt P15090)
T2 sequence (P15090 2-132): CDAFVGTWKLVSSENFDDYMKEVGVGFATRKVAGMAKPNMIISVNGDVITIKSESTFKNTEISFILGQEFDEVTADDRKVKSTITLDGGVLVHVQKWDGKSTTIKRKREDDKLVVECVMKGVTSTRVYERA

C[S+]([O-])c1ccc(-c2nc(-c3ccncc3)c(-c3ccc(F)cc3)[nH]2)cc1 (centres unmarked) [SB203580]
Kd (Menin): > 500 µM
Kd [1]: > 500 µM
Kd [2]: > 500 µM
Kd [3]: 30.9 ± 4.54 µM
Kd [4]: > 500 µM

Reference: article doi:10.1101/2020.07.24.219071v1 (biorxiv, 2020)
